In article PMC3914206:

Tests used:
Assay type in all cases: binding
Conditions in all cases: Compound Concentration 10 µM
panel of 442 kinases [1] = molecular target: T1, panel of 442 kinases (Homo sapiens, UniProt Q99759)
T1 construct: purchased KINOMEscan
T1 sequence (Q99759 1-626): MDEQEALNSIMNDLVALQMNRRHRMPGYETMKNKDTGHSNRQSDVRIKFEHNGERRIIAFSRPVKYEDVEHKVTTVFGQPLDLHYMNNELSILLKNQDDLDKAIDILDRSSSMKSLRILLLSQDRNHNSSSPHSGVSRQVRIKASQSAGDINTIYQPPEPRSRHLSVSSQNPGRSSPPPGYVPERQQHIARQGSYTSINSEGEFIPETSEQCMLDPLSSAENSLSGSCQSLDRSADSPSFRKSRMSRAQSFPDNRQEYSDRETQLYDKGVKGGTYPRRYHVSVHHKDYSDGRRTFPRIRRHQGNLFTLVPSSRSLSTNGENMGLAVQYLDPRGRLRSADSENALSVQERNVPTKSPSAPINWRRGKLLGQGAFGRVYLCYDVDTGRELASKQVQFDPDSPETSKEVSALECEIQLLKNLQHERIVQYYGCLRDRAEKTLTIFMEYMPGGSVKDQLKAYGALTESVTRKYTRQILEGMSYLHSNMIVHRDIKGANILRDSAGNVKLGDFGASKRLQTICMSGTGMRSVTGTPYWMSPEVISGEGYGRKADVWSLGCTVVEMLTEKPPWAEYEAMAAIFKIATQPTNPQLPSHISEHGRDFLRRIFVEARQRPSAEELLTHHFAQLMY
Text: (§1) We assessed the selectivity of members of this scaffold using the KINOMEscan methodology across a near comprehensive panel of 442 kinases [[18,27]].

panel of 442 kinases [2] = molecular target: T2, panel of 442 kinases (Homo sapiens, UniProt P19525)
T2 construct: purchased KINOMEscan
Text: as §1

panel of 442 kinases [3] = molecular target: T3, panel of 442 kinases (Homo sapiens, UniProt P80192)
T3 construct: purchased KINOMEscan
Text: as §1

T2 sequence (P19525 whole entry): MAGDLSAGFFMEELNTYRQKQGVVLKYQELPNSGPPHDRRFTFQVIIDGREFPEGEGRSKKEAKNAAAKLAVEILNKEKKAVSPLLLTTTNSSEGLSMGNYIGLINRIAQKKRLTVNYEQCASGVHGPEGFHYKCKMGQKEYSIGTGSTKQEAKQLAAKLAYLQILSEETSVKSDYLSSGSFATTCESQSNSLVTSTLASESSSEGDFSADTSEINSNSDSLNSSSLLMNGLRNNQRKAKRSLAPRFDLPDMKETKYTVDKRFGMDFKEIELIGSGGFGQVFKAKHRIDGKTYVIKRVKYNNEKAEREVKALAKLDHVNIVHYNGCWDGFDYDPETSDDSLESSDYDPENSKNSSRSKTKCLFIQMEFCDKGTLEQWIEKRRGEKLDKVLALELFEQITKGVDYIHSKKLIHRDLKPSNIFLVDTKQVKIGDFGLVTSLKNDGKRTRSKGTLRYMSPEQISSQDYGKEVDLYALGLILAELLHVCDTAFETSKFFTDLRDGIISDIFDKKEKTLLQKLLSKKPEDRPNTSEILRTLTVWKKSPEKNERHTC
T3 sequence (P80192 whole entry): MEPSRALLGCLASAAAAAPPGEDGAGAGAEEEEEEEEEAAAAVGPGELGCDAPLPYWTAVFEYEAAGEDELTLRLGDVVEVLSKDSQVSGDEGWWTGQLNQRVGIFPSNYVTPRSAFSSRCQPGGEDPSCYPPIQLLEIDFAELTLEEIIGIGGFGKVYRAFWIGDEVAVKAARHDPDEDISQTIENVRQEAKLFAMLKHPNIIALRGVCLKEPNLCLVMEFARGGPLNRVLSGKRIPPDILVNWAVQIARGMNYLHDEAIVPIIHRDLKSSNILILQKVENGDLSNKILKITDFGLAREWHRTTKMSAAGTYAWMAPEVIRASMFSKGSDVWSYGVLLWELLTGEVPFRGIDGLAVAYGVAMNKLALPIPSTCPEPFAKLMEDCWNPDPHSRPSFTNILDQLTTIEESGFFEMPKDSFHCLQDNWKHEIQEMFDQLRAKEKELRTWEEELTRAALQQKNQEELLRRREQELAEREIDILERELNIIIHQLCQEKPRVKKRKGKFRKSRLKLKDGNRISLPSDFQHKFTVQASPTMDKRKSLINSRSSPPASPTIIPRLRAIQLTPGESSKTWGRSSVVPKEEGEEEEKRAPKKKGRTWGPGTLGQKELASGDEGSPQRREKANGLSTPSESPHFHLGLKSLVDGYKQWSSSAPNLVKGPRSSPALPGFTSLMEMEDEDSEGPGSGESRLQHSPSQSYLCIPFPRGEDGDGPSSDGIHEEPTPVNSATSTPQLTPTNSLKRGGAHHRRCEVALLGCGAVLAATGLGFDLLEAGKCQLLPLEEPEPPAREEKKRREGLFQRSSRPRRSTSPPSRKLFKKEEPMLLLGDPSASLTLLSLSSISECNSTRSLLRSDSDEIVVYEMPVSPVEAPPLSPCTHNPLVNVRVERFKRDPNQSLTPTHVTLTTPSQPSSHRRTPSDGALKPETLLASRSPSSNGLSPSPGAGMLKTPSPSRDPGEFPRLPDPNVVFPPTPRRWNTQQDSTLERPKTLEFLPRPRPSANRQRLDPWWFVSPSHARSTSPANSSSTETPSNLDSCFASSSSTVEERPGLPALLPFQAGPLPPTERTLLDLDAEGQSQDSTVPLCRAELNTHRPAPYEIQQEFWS

SMILES: COc1cc(C(=O)N2CCC(N3CCN(C)CC3)CC2)ccc1Nc1ncc2c(n1)N(C1CCCC1)c1ccccc1C(=O)N2C [Compound 25, 11-cyclopentyl-2-((2-methoxy-4-(4-(4-methylpiperazin-1-yl)piperidine-1-carbonyl)phenyl)amino)-5-methyl-5H-benzo[e]pyrimido[5,4-b][1,4]diazepin-6(11H)-one]
- KINOMEscan: MAP3K3 (panel of 442 kinases [1]): 100
- KINOMEscan: PRKR (panel of 442 kinases [2]): 71
- KINOMEscan: MLK1 (panel of 442 kinases [3]): 100

SMILES: COc1cc(C(=O)N2CCC(N3CCN(C)CC3)CC2)ccc1Nc1ncc2c(n1)N1CCc3cccc(c31)C(=O)N2C [Compound 24]
- KINOMEscan: MAP3K3 (panel of 442 kinases [1]): 98
- KINOMEscan: PRKR (panel of 442 kinases [2]): 33
- KINOMEscan: MLK1 (panel of 442 kinases [3]): 85

SMILES: COc1cc(C(=O)N2CCC(N3CCN(C)CC3)CC2)ccc1Nc1ncc2c(n1)N(C)c1ccccc1C(=O)N2C [15 (LRRK2-IN-1)]
- KINOMEscan: MAP3K3 (panel of 442 kinases [1]): 97
- KINOMEscan: PRKR (panel of 442 kinases [2]): 84
- KINOMEscan: MLK1 (panel of 442 kinases [3]): 93

SMILES: CCOc1cc(C(=O)N2CCC(N3CCN(C)CC3)CC2)ccc1Nc1ncc2c(n1)N(C1CCCC1)c1ccccc1C(=O)N2C [Compound 26]
- KINOMEscan: MAP3K3 (panel of 442 kinases [1]): 100
- KINOMEscan: PRKR (panel of 442 kinases [2]): 97
- KINOMEscan: MLK1 (panel of 442 kinases [3]): 100
